Source: ChEMBL document CHEMBL4477239 (Bioorg Med Chem, 2016)

Key:
NCI-H1993 = assay: Cytotoxicity against human NCI-H1993 cells assessed as growth inhibition after 72 hrs by CCK-8 assay; conditions: NCI-H1993, 72 h
[1] = target: Hepatocyte growth factor receptor (Homo sapiens, UniProt P08581)
Hepatocyte growth factor receptor, sequence (P08581 whole entry): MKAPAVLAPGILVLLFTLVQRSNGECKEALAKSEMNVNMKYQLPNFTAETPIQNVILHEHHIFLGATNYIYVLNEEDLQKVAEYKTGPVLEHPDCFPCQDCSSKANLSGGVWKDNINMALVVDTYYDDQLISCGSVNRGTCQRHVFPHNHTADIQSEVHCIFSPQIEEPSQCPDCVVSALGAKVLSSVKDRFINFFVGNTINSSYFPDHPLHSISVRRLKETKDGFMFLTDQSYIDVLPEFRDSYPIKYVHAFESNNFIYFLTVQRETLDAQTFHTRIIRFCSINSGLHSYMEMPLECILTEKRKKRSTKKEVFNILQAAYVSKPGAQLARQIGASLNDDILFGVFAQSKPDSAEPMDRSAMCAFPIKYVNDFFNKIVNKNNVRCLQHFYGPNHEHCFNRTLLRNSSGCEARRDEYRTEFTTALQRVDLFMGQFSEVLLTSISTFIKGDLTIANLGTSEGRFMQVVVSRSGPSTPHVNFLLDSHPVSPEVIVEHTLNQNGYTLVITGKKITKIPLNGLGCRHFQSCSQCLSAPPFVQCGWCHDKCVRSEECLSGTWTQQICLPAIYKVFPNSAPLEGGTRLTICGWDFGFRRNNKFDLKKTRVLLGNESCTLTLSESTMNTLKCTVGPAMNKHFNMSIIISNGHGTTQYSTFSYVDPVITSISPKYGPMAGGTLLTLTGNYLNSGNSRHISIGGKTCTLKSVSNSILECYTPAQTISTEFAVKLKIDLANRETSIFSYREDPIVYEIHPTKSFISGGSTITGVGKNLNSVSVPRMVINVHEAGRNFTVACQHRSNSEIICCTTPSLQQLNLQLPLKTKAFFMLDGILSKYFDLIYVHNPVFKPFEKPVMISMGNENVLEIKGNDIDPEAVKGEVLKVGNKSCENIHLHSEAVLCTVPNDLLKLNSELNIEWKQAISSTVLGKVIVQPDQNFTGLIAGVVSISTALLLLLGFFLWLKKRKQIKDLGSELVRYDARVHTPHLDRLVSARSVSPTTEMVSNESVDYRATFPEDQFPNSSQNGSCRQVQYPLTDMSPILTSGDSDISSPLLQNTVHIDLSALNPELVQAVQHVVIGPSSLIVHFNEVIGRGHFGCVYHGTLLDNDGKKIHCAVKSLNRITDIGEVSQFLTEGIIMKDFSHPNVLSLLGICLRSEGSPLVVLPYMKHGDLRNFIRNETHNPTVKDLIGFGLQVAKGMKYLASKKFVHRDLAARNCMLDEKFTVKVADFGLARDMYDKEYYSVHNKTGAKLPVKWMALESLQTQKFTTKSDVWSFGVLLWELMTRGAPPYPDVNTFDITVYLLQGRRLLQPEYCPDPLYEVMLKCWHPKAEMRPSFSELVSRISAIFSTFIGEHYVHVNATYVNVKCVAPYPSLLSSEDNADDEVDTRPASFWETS
Description: Inhibition of c-Met kinase (unknown origin) assessed as decrease in phosphorylation of TK substrate-biotin peptide preincubated for 5 to 10 mins followed by ATP addition measured after 30 mins by HTRF assay

| SMILES | IC50 (NCI-H1993) [nM] | IC50 [1] [nM] |
| --- | --- | --- |
| CC(c1cc2cccnc2cc1F)n1cnc2ncc(-c3ccncc3)nc21 (stereo unspecified) | 171 | 3.8 |
| FC(F)(F)Oc1ccc(-c2cnc3ncn(Cc4ccc5ncccc5c4)c3n2)cc1 | > 10000 | 81.2 |
| c1cnc2ccc(Cn3cnc4ncc(-c5cn[nH]c5)nc43)cc2c1 | 2890 | 13.2 |
| Oc1nc2ncc(-c3ccncc3)nc2n1Cc1ccc2ncccc2c1 | > 10000 | > 1000 |
| CCC(c1ccc2ncccc2c1F)n1cnc2ncc(-c3cnn(CCO)c3)nc21 (stereo unspecified) |  | 22.5 |
| CC(NC/N=C/c1cnn(C)c1)c1ccc2ncccc2c1 (stereo unspecified) | 197 | 2.49 |
| Oc1nc2ncc(-c3ccccc3)nc2n1Cc1ccc2ncccc2c1 | > 10000 | > 1000 |
| CC(NC/N=C/c1ccc(C(N)=O)c(F)c1)c1ccc2ncccc2c1 (stereo unspecified) | 238 | 2.74 |
| CCC(c1ccc2ncccc2c1F)n1cnc2ncc(-c3cnc4ccccc4c3)nc21 (stereo unspecified) |  | 16.4 |
| CCC(c1ccc2ncccc2c1F)n1cnc2ncc(-c3ccc(C(N)=O)c(F)c3)nc21 (stereo unspecified) | 665 | 1.6 |
| CNC(=O)c1ccc(/C=N/CNC(C)c2ccc3ncccc3c2)cc1F (stereo unspecified) | 191 | 3.95 |
| CC(c1c(F)cc2ncccc2c1F)n1cnc2ncc(-c3ccccc3)nc21 (stereo unspecified) | 514 | 1.8 |
| CCC(c1cc2cccnc2cc1F)n1cnc2ncc(-c3ccc(C(=O)NC)c(F)c3)nc21 (stereo unspecified) |  | 9.4 |
| CC(NC/N=C/c1ccnn1C)c1ccc2ncccc2c1 (stereo unspecified) | 3280 | 38.5 |
| Cn1nccc1-c1cnc2ncn(Cc3ccc4ncccc4c3)c2n1 | 7910 | 66.6 |
| CN(C)c1cccc(-c2cnc3ncn(Cc4ccc5ncccc5c4)c3n2)c1 | > 10000 | 40 |
| CC(c1cc2cccnc2cc1F)n1cnc2ncc(-c3cnc4ccccc4c3)nc21 (stereo unspecified) | 109 | 3.4 |
| CCC(c1ccc2ncccc2c1F)n1cnc2ncc(-c3cn[nH]c3)nc21 (stereo unspecified) |  | 37.7 |
| CC(NC/N=C/c1cn[nH]c1)c1ccc2ncccc2c1 (stereo unspecified) | 519 | 11.4 |

| SMILES | IC50 (NCI-H1993) [nM] | IC50 [1] [nM] |
| --- | --- | --- |
| Cc1cc2ncccc2cc1C(C)n1cnc2ncc(-c3ccc(C(N)=O)c(F)c3)nc21 (stereo unspecified) |  | 11.7 |
| CCC(c1cc2cccnc2cc1F)n1cnc2ncc(-c3ccccc3)nc21 (stereo unspecified) |  | 28.1 |
| CC(c1cc(F)c2ncccc2c1)n1cnc2ncc(-c3ccncc3)nc21 (stereo unspecified) | > 10000 | 190 |
| Cc1nc2ncc(-c3cnn(C)c3)nc2n1Cc1ccc2ncccc2c1 | > 10000 | 641 |
| COC(=O)c1ccc(-c2cnc3ncn(C(C)c4cc5cccnc5cc4C)c3n2)cc1F (stereo unspecified) |  | 64.5 |
| CCC(c1cc2cccnc2cc1F)n1cnc2ncc(-c3cn[nH]c3)nc21 (stereo unspecified) |  | 8.7 |
| CC(c1cc2cccnc2cc1F)n1cnc2ncc(-c3cnn(CCO)c3)nc21 (stereo unspecified) | 175 | 4.5 |
| C[C@H](c1cc2cccnc2cc1F)n1cnc2ncc(-c3cnn(C)c3)nc21 | 239 | 1.94 |
| c1cnc2ccc(Cn3cnc4ncc(-c5ccncc5)nc43)cc2c1 | 1160 | 17.5 |
| CCC(c1cc2cccnc2cc1F)n1cnc2ncc(-c3ccncc3)nc21 (stereo unspecified) |  | 14.1 |
| CC(NC/N=C/c1ccncc1)c1ccc2ncccc2c1 (stereo unspecified) | 614 | 3.67 |
| Cc1c(C(C)n2cnc3ncc(-c4cnn(CCO)c4)nc32)ccc2ncccc12 (stereo unspecified) | 726 | 4.2 |
| CCC(c1ccc2ncccc2c1F)n1cnc2ncc(-c3ccncc3)nc21 (stereo unspecified) |  | 100 |
| CC(c1cc2cccnc2cc1F)n1cnc2ncc(-c3ccccc3)nc21 (stereo unspecified) | 570 | 4.6 |
| Cc1cc2ncccc2cc1C(C)n1cnc2ncc(-c3ccncc3)nc21 (stereo unspecified) |  | 68.3 |
| CC(c1cc(F)c2ncccc2c1)n1cnc2ncc(-c3cccc4ccccc34)nc21 (stereo unspecified) |  | > 1000 |
| CC(c1cc(F)c2ncccc2c1)n1cnc2ncc(-c3cnc4ccccc4c3)nc21 (stereo unspecified) | > 10000 | 134 |
| OCCn1cc(-c2cnc3nnn(Cc4ccc5ncccc5c4)c3n2)cn1 [PF-04217903] | 33.6 |  |
